Source: PMC5469273, “Discovery of Novel Small-Molecule Inhibitors of LIM Domain Kinase for Inhibiting HIV-1” (Journal of Virology, 2017)

Legend:
[1] = oral gavage 20 mg/kg daily, 7 days
in vitro = settings: human
HIV-1(NL4-3) = assay type: cell-based; settings: for Infectivity (percentage of GFP+ cells): 100 μM, pretreated 1 h, HIV-1(NL4-3) 3 h, washed, viable cells only, paired DMSO controls 1.76-3.37%; for X4 HIV infection in screening: at nontoxic dosages, Fig. 1C and 2
LIMK1 = LIMK1 (Homo sapiens, UniProt P53667); test: LIMK1 biochemical assay, 10-dose IC50; parameters: purified from insect cells; His; purchased Reaction Biology Corporation, Malvern, PA; host or cells: insect cells (coexpressed with ROCK1); settings: purified LIMK1; 10 μM ATP, 1 μM cofilin; ≥2 in vitro kinase assays; read-out: LIMK1 Biochemical Inhibition IC50
Text: We selected R10015 from the potential LIMK inhibitors for further detailed mechanistic studies. The synthesis, purification, and biochemical characterization of R10015 are described in Materials and Methods below and shown in Fig. 3. We performed a cell-free assay to measure R10015 inhibition of the LIM domain kinase using purified human LIMK1 and its substrate, cofilin. […] We also performed profiling of R10015 against a panel of 62 kinases (Table 2).
Biochemical LIMK1 assays for all inhibitors were carried out by Reaction Biology Corporation, Malvern, PA, and followed the protocols described on its website. […] Reactions were carried out at 10 μM ATP, 1 μM substrate (cofilin), and 50 nM LIMK1 (final concentrations). […] The reagents were as follows: base reaction buffer, 20 mM HEPES (pH 7.5), 10 mM MgCl2, 1 mM EGTA, 0.02% Brij 35, 0.02 mg/ml bovine serum albumin (BSA), 0.1 mM Na3VO4, 2 mM dithiothreitol (DTT), 1% DMSO. No additional cofactors were added to the reaction mixture. The reaction procedures were as follows. (i) The indicated substrate was prepared in freshly made base reaction buffer. (ii) Any required cofactors were delivered to the substrate solution described above. (iii) The indicated kinase was delivered into the substrate solution and gently mixed. (iv) The compounds in DMSO were delivered into the kinase reaction mixture. (v) [^33P]ATP (final specific activity, 0.01 μCi/μl) was delivered into the reaction mixture to initiate the reaction. […] (viii) The filters were washed extensively in 0.1% phosphoric acid.

Sequence of LIMK1 (P53667 285-638): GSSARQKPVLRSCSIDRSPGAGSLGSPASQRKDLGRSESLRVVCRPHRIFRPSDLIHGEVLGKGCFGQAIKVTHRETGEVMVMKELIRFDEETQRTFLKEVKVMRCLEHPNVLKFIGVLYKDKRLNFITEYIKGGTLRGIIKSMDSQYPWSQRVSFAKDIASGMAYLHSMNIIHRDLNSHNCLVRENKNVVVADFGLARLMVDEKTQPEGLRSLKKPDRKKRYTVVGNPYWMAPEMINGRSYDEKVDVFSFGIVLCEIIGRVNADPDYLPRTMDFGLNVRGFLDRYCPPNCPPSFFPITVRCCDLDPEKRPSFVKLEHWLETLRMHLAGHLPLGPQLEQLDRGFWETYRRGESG

| SMILES | body weight over a week compared to PBS control [1] | viability at 100 µM (in vitro) | Infectivity (percentage of GFP+ cells) (HIV-1(NL4-3); 48 h) | X4 HIV infection in screening (HIV-1(NL4-3)) | IC50 (LIMK1) | HIV-dependent GFP expression (GFP+ cells) (HIV-1(NL4-3); etravirine 100 nM, HIV(NL4-3), 48 h, Fig. 1B) |
| --- | --- | --- | --- | --- | --- | --- |
| Cc1c[nH]c2ncnc(-c3ccc(NC(=O)N(CCO)c4ccccc4)cc3)c12 [Compound R7826] | gained weight | 96.2% | 1.02% | blocked | – | – |
| Cc1c[nH]c2ncnc(N3CCC(c4nc5cc(C#N)ccc5[nH]4)CC3)c12 [Compound R8212] | – | 93.3% | 2.22% | blocked | 44 ± 6 nM | – |
| CC1(c2nc3ccc(C(=O)NC4CCC4)cc3[nH]2)CCN(c2ncnc3[nH]ccc23)CC1 [Compound R8482] | – | 93.4% | 1.10% | blocked | 41 ± 4 nM | – |
| Cc1c[nH]c2ncnc(-c3ccc(-c4nc5ccc(C(=O)NC6CCCC6)cc5[nH]4)c(F)c3)c12 [Compound R8584] | – | 93.7% | 0.65% | blocked | 50 ± 7 nM | – |
| CC(C)NC(=O)c1ccc2[nH]c(N3CCN(c4ncnc5[nH]cc(Cl)c45)C[C@@H]3C)nc2c1 [Compound R10543] | – | 90.1% | 0.75% | blocked | 5 ± 2 nM | – |
| CCOC(=O)c1ccc2nc(N3CCN(c4ncnc5[nH]cc(Cl)c45)[C@@H](C)C3)[nH]c2c1 [Compound R10659] | – | 89.8% | 1.30% | blocked | – | – |
| Cc1cc(C#N)cc(C)c1Oc1nc(Nc2ccc(C#N)cc2)nc(N)c1Br [Etravirine, etravirine, reference compound] | – | – | – | – | – | 0.01% |
